Measured values taken from patent US9265810B2, “Pharmaceutical composition and methods for modulating immune system, preventing, pretreating and/or treating cancers” (Hong Kong Baptist University, priority 2013, dated 2016).

Test system: 4T1 murine mammary cancer cells
Description: In this example, the average body weight of mice is 20 g; and the doses of Taxol and RAP are 20 mg/kg, and 40 mg/kg, respectively.

CC(=O)O[C@H]1C(=O)[C@@]2(C)[C@H]([C@H](OC(=O)c3ccccc3)[C@]3(O)C[C@H](OC(=O)[C@H](O)[C@@H](NC(=O)c4ccccc4)c4ccccc4)C(C)=C1C3(C)C)[C@]1(OC(C)=O)CO[C@@H]1C[C@@H]2O [Taxol, paclitaxel]
survival rate at Day 55 (Day 55): 30%
anticancer effect compared to control group (RAP 40 mg/kg/day gavage since day 0, Taxol 20 mg/kg/week i.p. since day 17, tumor cells at day 7): significant anticancer effect
death at day 50 (day 50, when all the mice of Control group died): no death occurred
